The subject of series [1] is adenosinedeaminase. The conditions noted are these: cited from earlier work.
For series [2] the following is noted: background art; cited from earlier work.
Series [3] concerns adenosinedeaminase. The conditions noted are these: in bodies; cited from earlier work.
Series [4] has as its system potentially lethal damage repair (PLDR). Description: Inhibition of potentially lethal damage repair (PLDR). The text has this:
In view of the fact that the tumor cells with radioresistance under hypoxic conditions are at a quiescent stage, I have investigated the possibility of radiosensitization by inhibiting potentially lethal damage repair (hereinafter referred to as "PLDR"), which is especially marked in quiescent cells.

For series [5], the system named is EMT-6 tumor. The series is described as follows: Radiosensitizing effect on EMT-6 experimental tumors in mice (enhancer i.p. after local irradiation). To be noted: for Radiosensitizing activity: summary statement; for Diameter ratio / Mean tumor diameter / Volume ratio: irradiation 1500 rad + i.p. enhancer (3'-dGuo-5'-MP 100 mg/kg; 3'-dAdo-5'-MP 75 mg/kg); for 0.5 to less than 1 of volume ratio excluding cure; Tumor regression rate: slow, share of mice / 1.0 to less than 2.0 of volume ratio excluding cure; regrowth: slow, share of mice / 2.0 or more of volume ratio excluding cure; regrowth: rapid, share of mice / Cure (tumors completely vanished), share of mice / Less than 0.5 of volume ratio excluding cure; Tumor regression rate: rapid, share of mice: 28th day after treatment, irradiation 1500 rad + enhancer (3'-dGuo-5'-MP 100 mg/kg; 3'-dAdo-5'-MP 75 mg/kg); for Mean tumor diameter at the time of irradiation: baseline before irradiation (1500 rad) and i.p. enhancer (3'-dGuo-5'-MP 100 mg/kg, n = 9; 3'-dAdo-5'-MP 75 mg/kg, n = 10). Type of series: in vivo, BALB/c-strain female mice. As to the method:
EMT-6 tumor cells (2×10^5) were inoculated intradermally into the right thighs of BALB/c-strain female mice (8 weeks old, 6 or more mice for each group). When the tumor size reached 6 to 7 mm in diameter after inoculation of the tumor cells, local irradiation with a 32 MeV electron beam was carried out at 1,500 rad under no anesthesia and thereafter 3'-dGuo-5'-MP and 3'-dAdo-5'-MP dissolved in physiological saline solution, was administered intraperitoneally to each mouse in the indicated doses of respective agents. After these treatments, the tumor sizes were measured in tri-dimensional diameters every day or every other day for 28 days, and compared with the control group with respect to the following items: [formula]
The results are shown in Table 1 and Table 2, in which "cure" means that the tumors completely vanished during the observation period.

Series [6] can be described thus: Acute toxicity test, intraperitoneal. To be noted: mouse, in vivo, ip, ICR mice, male, 8 weeks old, observed for a week. As to the method: The compounds of this invention were administered intraperitoneally to ICR mice (male, 8 weeks old, 10 mice for each group), and the mice were subjected to observation for a week.
The subject of series [7] is EMT-6 tumor. Description: Enhancement of the effect of anti-tumor agents (araC) on EMT-6 experimental tumors in mice. It is filed as in vivo, BALB/c-strain female mice. On the procedure: EMT-6 tumor cells (1×10^6) were inoculated intradermally into the right thighs of BALB/c-strain female mice (8 weeks old). On the 11th day after inoculation of the tumor cells and thereafter, 3'-dGuo-5'-MP in physiological saline solutions were administered intrapenitoneally to the mice for 8 consecutive days in the dose of 50 mg/kg. The pharmaceutical agents of the present invention were administered an hour after administration of araC. After commencement of the treatment with pharmaceutical agents, the tumor sizes were measured and compared with the control group.

Setting [8] is: 7 days after commencement of treatment, single agent 50 mg/kg × 8.
Setting [9] is: 7 days after commencement of treatment, single agent 50 mg/kg × 8 (n = 10).
The mark [10] stands for this setting: 14 days after commencement of treatment, single agent 50 mg/kg × 8.
Setting [11] is: 14 days after commencement of treatment, single agent 50 mg/kg × 8 (n = 10).
[12] abbreviates: 21 days after commencement of treatment, single agent 50 mg/kg × 8.
The mark [13] stands for this setting: 21 days after commencement of treatment, single agent 50 mg/kg × 8 (n = 10).
[14] abbreviates: immediately before commencement of treatment, single agent 50 mg/kg × 8 (n = 10).

Each structure is given as a SMILES string.

As to `OC[C@H]1O[C@@H](n2cnc3c2NC=NC[C@H]3O)C[C@@H]1O` [2'-deoxycoformycin], the Adenosinedeaminase inhibition entry in the series on adenosinedeaminase [1] was “inhibitor against adenosinedeaminase”. Further, in series [2], the “Toxicity / side effects” value is “may cause damage to the immune systems”.

For `Nc1ncnc2c1ncn2[C@@H]1O[C@H](CO)C[C@H]1O` [3'-dAdo, 3'-deoxyadenosine], the Inactivation by adenosinedeaminase entry in the series on adenosinedeaminase [3] is recorded as “readily inactivated by adenosinedeaminase”. The PLDR-inhibiting ability result in series [4] is on record as “confirmed to have a PLDR-inhibiting ability”. Moreover, the “PLDR-inhibiting ability in combination with 2'-deoxycoformycin” value in series [4] (in combination with 2'-deoxycoformycin) is “can be strengthened and prolonged”. Further, the Radiosensitizing activity entry in the series on EMT-6 tumor [5] is “excellent radiosensitizing activities”. Also, the “Toxicity / side effects” value in series [2] is “various side effects”.

Consider `Nc1ncnc2c1ncn2[C@@H]1O[C@H](COP(=O)(O)O)C[C@H]1O` [3'-dAdo-5'-MP, 3'-deoxyadenosine-5'-monophosphate], for which, in series [6], the median lethal dose (LD50) (in general, the dose at which mortality reaches 50%) at 168 h came out at 500 mg/kg. Further, in the series with EMT-6 tumor [5] (2 weeks after treatment), the Diameter ratio is listed as 0.66 ± 0.14, the Mean tumor diameter is given as 4.75 ± 1.06 mm and the Volume ratio is recorded as 0.63 ± 0.18. Moreover, in the series with EMT-6 tumor [5] (3 weeks after treatment), the Diameter ratio was determined as 0.49 ± 0.17, the Mean tumor diameter amounted to 3.65 ± 1.24 mm and the Volume ratio turned out to be 0.58 ± 0.27. In the series with EMT-6 tumor [5], the “0.5 to less than 1 of volume ratio excluding cure; Tumor regression rate: slow, share of mice” value was 0%; the “1.0 to less than 2.0 of volume ratio excluding cure; regrowth: slow, share of mice” value is listed as 20%; the “2.0 or more of volume ratio excluding cure; regrowth: rapid, share of mice” value is 10%; the “Cure (tumors completely vanished), share of mice” value stood at 50%. Further, in the series on EMT-6 tumor [5], the “Less than 0.5 of volume ratio excluding cure; Tumor regression rate: rapid, share of mice” value was 20%; the “Mean tumor diameter at the time of irradiation” value worked out at 7.07 ± 0.23 mm; the Radiosensitizing activity result is reported as “excellent radiosensitizing activities”.

With `Nc1nc2c(ncn2[C@@H]2O[C@H](COP(=O)(O)O)C[C@H]2O)c(=O)[nH]1` [3'-dGuo-5'-MP, 3'-deoxyguanosine-5'-monophosphate], in series [6], the LD50 at 168 h is greater than 1000 mg/kg. For the same compound, the Diameter ratio worked out at 0.93 ± 0.13 in the series with EMT-6 tumor [5] (2 weeks after treatment) and 0.90 ± 0.18 in the series with EMT-6 tumor [5] (3 weeks after treatment). For the same compound, the Mean tumor diameter in the series with EMT-6 tumor [5] (2 weeks after treatment) is 6.17 ± 0.90 mm; in the series with EMT-6 tumor [5] (3 weeks after treatment), 5.95 ± 1.22 mm; in the series with EMT-6 tumor [7] (setting [9]) it was 9.83 ± 1.07 mm; in the series on EMT-6 tumor [7] (7 days after commencement, combination araC 50 mg/kg × 8 + 3'-dGuo-5'-MP 50 mg/kg × 8 (1 h after araC)), 8.28 ± 1.11 mm; in the series on EMT-6 tumor [7] (setting [11]) it was 12.10 ± 2.00 mm; in the series with EMT-6 tumor [7] (14 days after commencement, combination araC 50 mg/kg × 8 + 3'-dGuo-5'-MP 50 mg/kg × 8 (1 h after araC)), 9.12 ± 3.67 mm. The Mean tumor diameter in the series on EMT-6 tumor [7] (setting [13]) came to 15.40 ± 2.01 mm; with EMT-6 tumor [7] (21 days after commencement, combination araC 50 mg/kg × 8 + 3'-dGuo-5'-MP 50 mg/kg × 8 (1 h after araC)) it was 12.07 ± 4.98 mm; in the series with EMT-6 tumor [7] (immediately before commencement of treatment, combination araC 50 mg/kg × 8 + 3'-dGuo-5'-MP 50 mg/kg × 8 (n = 9)), 7.34 ± 0.62 mm; in the series with EMT-6 tumor [7] (setting [14]) it was 7.57 ± 0.64 mm. Moreover, the Volume ratio in the series with EMT-6 tumor [5] (2 weeks after treatment) was found to be 1.19 ± 0.32; in the series on EMT-6 tumor [5] (3 weeks after treatment) it was 1.45 ± 0.46. For the same compound, the “0.5 to less than 1 of volume ratio excluding cure; Tumor regression rate: slow, share of mice” value with EMT-6 tumor [5] came to 22%. The “1.0 to less than 2.0 of volume ratio excluding cure; regrowth: slow, share of mice” value in the series on EMT-6 tumor [5] is on record as 56%. In the series on EMT-6 tumor [5], the “2.0 or more of volume ratio excluding cure; regrowth: rapid, share of mice” value amounted to 0%. The “Cure (tumors completely vanished), share of mice” value in the series with EMT-6 tumor [5] is given as 22%. Moreover, the “Less than 0.5 of volume ratio excluding cure; Tumor regression rate: rapid, share of mice” value in the series with EMT-6 tumor [5] came out at 0%. For the same compound, the “Mean tumor diameter at the time of irradiation” value in the series with EMT-6 tumor [5] is given as 6.46 ± 0.23 mm. Further, the Radiosensitizing activity result in the series with EMT-6 tumor [5] is on record as “excellent radiosensitizing activities”. Further, the “Mean tumor diameter ratio” value with EMT-6 tumor [7] (setting [8]) is on record as 1.30 ± 0.13; in the series on EMT-6 tumor [7] (7 days after commencement, combination araC 50 mg/kg × 8 + 3'-dGuo-5'-MP 50 mg/kg × 8) it was 1.13 ± 0.15; with EMT-6 tumor [7] (setting [10]), 1.61 ± 0.27; with EMT-6 tumor [7] (14 days after commencement, combination araC 50 mg/kg × 8 + 3'-dGuo-5'-MP 50 mg/kg × 8) it was 1.26 ± 0.51; in the series on EMT-6 tumor [7] (setting [12]), 2.05 ± 0.32; in the series on EMT-6 tumor [7] (21 days after commencement, combination araC 50 mg/kg × 8 + 3'-dGuo-5'-MP 50 mg/kg × 8) it was 1.67 ± 0.68.

On to `Nc1ccn([C@@H]2O[C@H](CO)[C@@H](O)[C@@H]2O)c(=O)n1` [araC, 1-β-D-arabinofuranosylcytosine, reference compound], for which the “Mean tumor diameter ratio” value came out at 1.29 ± 0.13 in the series on EMT-6 tumor [7] (setting [8]), 1.60 ± 0.20 with EMT-6 tumor [7] (setting [10]) and 2.08 ± 0.20 in the series on EMT-6 tumor [7] (setting [12]). The Mean tumor diameter is recorded as 9.63 ± 0.68 mm in the series with EMT-6 tumor [7] (setting [9]), 11.91 ± 1.21 mm in the series on EMT-6 tumor [7] (setting [11]), 15.49 ± 1.26 mm with EMT-6 tumor [7] (setting [13]) and 7.49 ± 0.63 mm in the series on EMT-6 tumor [7] (setting [14]).

In the case of `COCC(O)Cn1ccnc1[N+](=O)[O-]` (stereo not drawn) [misonidazole], the “Toxicity / side effects” value in series [2] is “neurotoxicity”.

Values taken from US4432348A, “Enhancer of anti-tumor effect” (Yamasa Shoyu Kabushiki Kaisha, priority 1980, dated 1984).
